In ChEMBL document CHEMBL3102797, “Kelsoenethiol and dikelsoenyl ether, two unique kelsoane-type sesquiterpenes, from the Formosan soft coral Nephthea erecta” (2014):
Converted amounts (≈) assume the structure as drawn.

Tests used:
Assay type in all cases: functional
Conditions in all cases: read-out: ED50 (the source's name)
[1] = tested on: P388; test: Cytotoxicity against mouse P388 cells
[2] = tested on: HT-29; test: Cytotoxicity against human HT-29 cells
[3] = tested on: A549; test: Cytotoxicity against human A549 cells

Question: `C=C(C)[C@H]1[C@@H]2[C@H](C)CC[C@@H]2[C@@]2(C)CC[C@@H]12` was tested. Which EC50 [1] did it give?
Answer: 2.8 µg/mL (≈ 13.7 µM)

Question: And the EC50 [2]?
Answer: 3.2 µg/mL (≈ 15.7 µM)

Question: For `C/C(CS)=C1\[C@@H]2[C@H](C)CC[C@@H]2[C@@]2(C)CC[C@@H]12` (relative stereo), which EC50 [1] is on record?
Answer: 1.3 µg/mL (≈ 5.5 µM)

Question: And the EC50 [2]?
Answer: 1.8 µg/mL (≈ 7.61 µM)

Question: Which EC50 [3] does the source give for `CO[C@H](C(=O)[C@@H](O)[C@@H](C)O)[C@@H]1Cc2cc3cc(O[C@H]4C[C@@H](O[C@@H]5C[C@@H](O)[C@H](O)[C@@H](C)O5)[C@H](O)[C@@H](C)O4)c(C)c(O)c3c(O)c2C(=O)[C@H]1O[C@H]1C[C@@H](O[C@@H]2C[C@@H](O)[C@@H](O[C@@H]3C[C@](C)(O)[C@H](O)[C@@H](C)O3)[C@@H](C)O2)[C@H](O)[C@@H](C)O1` [PLICAMYCIN] here?
Answer: 0.07 µg/mL (≈ 0.0645 µM)

Question: What about the EC50 [1] of the same molecule?
Answer: 0.06 µg/mL (≈ 0.0553 µM)

Question: And the EC50 [2]?
Answer: 0.08 µg/mL (≈ 0.0737 µM)
